Measurements reported in paper PMC11930985 (Nature Communications, 2025).
Entries after “also recorded” stand apart in the source; their conditions may differ. Where two headings read alike, the source gives them in different places.

Test system: AML/MDS patients
Settings: for Fatal SAE: Adverse event / Fatal SAE: Grade / Fatal SAE: Relationship to Bemcentinib: per patient
Procedure: Safety assessments including standard clinical laboratory safety tests (hematology, biochemistry, coagulation, and urinalysis), physical examinations, vital signs (blood pressure, heart rate, respiration rate and temperature), and ECOG performance status were performed at baseline and throughout the study. Electrocardiograms were obtained at screening, Cycle 1 Day 1–4, 8, and 15, Cycle 2 Day 1, 8 and 15, at Day 1 of each cycle thereafter, (up to and including Cycle 15), and at Final Study Visit. QT prolongation was assessed using the Fridericia correction […] [34]. Severity of QTcF prolongation was defined as follows: Grade 1: maximum prolongation 450–480 ms; Grade 2: maximum prolongation 481-500 ms; Grade 3: ≥501 ms on at least two separate ECGs; Grade 4: ≥501 ms or >60 ms change from baseline, with Torsades de pointes, polymorphic ventricular tachycardia or signs/symptoms of serious arrythmia; Grade 5: Death.
Adverse events (AEs) were monitored starting at study enrolment until 28 days after end of treatment and graded according to the National Cancer Institute Common Terminology Criteria for Adverse Events (NCI-CTCAE) version 4.0. If drug-related toxicities continued beyond the follow-up period, patients were followed until all drug-related toxicities resolved to grade ≤1, stabilized or returned to baseline.

[1] = DE and LDAC cohorts combined (n = 72)

SMILES: Nc1nc(Nc2ccc3c(c2)CC[C@@H](N2CCCC2)CC3)nn1-c1cc2c(nn1)-c1ccccc1CCC2 [Bemcentinib]
- Fatal SAEs: cerebral hemorrhage [1]: 2 n
- Fatal SAEs: pneumonia/fungal pneumonia [1]: 3 n
- Fatal SAEs: sepsis/neutropenic sepsis [1]: 4 n
- Fatal SAEs (DE cohort): 7
- Actinomyces test positive, number of events (E) (human, in vivo): 1
- Actinomyces test positive, patients affected (human, in vivo): 1 (2.8) n (%)
- Anaemia, number of events (E) (human, in vivo): 4
- Anaemia, patients affected (human, in vivo): 4 (11.1) n (%)
- Anxiety, number of events (E) (human, in vivo): 2
- Anxiety, patients affected (human, in vivo): 2 (5.6) n (%)
- Back pain, number of events (E) (human, in vivo): 1
- Back pain, patients affected (human, in vivo): 1 (2.8) n (%)
- Blood and lymphatic system disorders (System Organ Class), number of events (E) (human, in vivo): 26
- Blood and lymphatic system disorders (System Organ Class), patients affected (human, in vivo): 12 (33.3) n (%)
- Cardiac disorders (System Organ Class), number of events (E) (human, in vivo): 10
- Cardiac disorders (System Organ Class), patients affected (human, in vivo): 4 (11.1) n (%)
- Decreased appetite, number of events (E) (human, in vivo): 2
- Decreased appetite, patients affected (human, in vivo): 2 (5.6) n (%)
- Dehydration, number of events (E) (human, in vivo): 1
- Dehydration, patients affected (human, in vivo): 1 (2.8) n (%)
- Device related infection, number of events (E) (human, in vivo): 1
- Device related infection, patients affected (human, in vivo): 1 (2.8) n (%)
- Diarrhoea, number of events (E) (human, in vivo): 6
- Diarrhoea, patients affected (human, in vivo): 3 (8.3) n (%)
- Dysgeusia, number of events (E) (human, in vivo): 1
- Dysgeusia, patients affected (human, in vivo): 1 (2.8) n (%)
- Dysphagia, number of events (E) (human, in vivo): 1
- Dysphagia, patients affected (human, in vivo): 1 (2.8) n (%)
- Dyspnoea exertional, number of events (E) (human, in vivo): 1
- Dyspnoea exertional, patients affected (human, in vivo): 1 (2.8) n (%)
- Dyspnoea, number of events (E) (human, in vivo): 1
- Dyspnoea, patients affected (human, in vivo): 1 (2.8) n (%)
- Enterococcal bacteraemia, number of events (E) (human, in vivo): 1
- Enterococcal bacteraemia, patients affected (human, in vivo): 1 (2.8) n (%)
- Enthesopathy, number of events (E) (human, in vivo): 1
- Enthesopathy, patients affected (human, in vivo): 1 (2.8) n (%)
- Epistaxis, number of events (E) (human, in vivo): 2
- Epistaxis, patients affected (human, in vivo): 1 (2.8) n (%)
- Fall, number of events (E) (human, in vivo): 1
- Fall, patients affected (human, in vivo): 1 (2.8) n (%)
- Fatigue, number of events (E) (human, in vivo): 4
- Fatigue, patients affected (human, in vivo): 2 (5.6) n (%)
- Gastrointestinal disorders (System Organ Class), number of events (E) (human, in vivo): 18
- Gastrointestinal disorders (System Organ Class), patients affected (human, in vivo): 12 (33.3) n (%)
- General disorders and administration site conditions (System Organ Class), number of events (E) (human, in vivo): 8
- General disorders and administration site conditions (System Organ Class), patients affected (human, in vivo): 6 (16.7) n (%)
- General physical health deterioration, number of events (E) (human, in vivo): 3
- General physical health deterioration, patients affected (human, in vivo): 3 (8.3) n (%)
- Gingivitis, number of events (E) (human, in vivo): 1
- Gingivitis, patients affected (human, in vivo): 1 (2.8) n (%)
- Haematuria, number of events (E) (human, in vivo): 1
- Haematuria, patients affected (human, in vivo): 1 (2.8) n (%)
- Hyperglycaemia, number of events (E) (human, in vivo): 4
- Hyperglycaemia, patients affected (human, in vivo): 2 (5.6) n (%)
- Hyperuricaemia, number of events (E) (human, in vivo): 2
- Hyperuricaemia, patients affected (human, in vivo): 2 (5.6) n (%)
- Hypoglycaemia, number of events (E) (human, in vivo): 1
- Hypoglycaemia, patients affected (human, in vivo): 1 (2.8) n (%)
- Hypokalaemia, number of events (E) (human, in vivo): 5
- Hypokalaemia, patients affected (human, in vivo): 5 (13.9) n (%)
- Hyponatraemia, number of events (E) (human, in vivo): 2
- Hyponatraemia, patients affected (human, in vivo): 2 (5.6) n (%)
- Hypophosphataemia, number of events (E) (human, in vivo): 3
- Hypophosphataemia, patients affected (human, in vivo): 3 (8.3) n (%)
- Hypotension, number of events (E) (human, in vivo): 3
- Hypotension, patients affected (human, in vivo): 3 (8.3) n (%)
- Hypoxia, number of events (E) (human, in vivo): 2
- Hypoxia, patients affected (human, in vivo): 2 (5.6) n (%)
- Infection, number of events (E) (human, in vivo): 2
- Infection, patients affected (human, in vivo): 2 (5.6) n (%)
- Infections and infestations (System Organ Class), number of events (E) (human, in vivo): 29
- Infections and infestations (System Organ Class), patients affected (human, in vivo): 23 (63.9) n (%)
- Injury, poisoning and procedural complications (System Organ Class), number of events (E) (human, in vivo): 1
- Injury, poisoning and procedural complications (System Organ Class), patients affected (human, in vivo): 1 (2.8) n (%)
- Investigations (System Organ Class), number of events (E) (human, in vivo): 8
- Investigations (System Organ Class), patients affected (human, in vivo): 7 (19.4) n (%)
- Lactic acidosis, number of events (E) (human, in vivo): 1
- Lactic acidosis, patients affected (human, in vivo): 1 (2.8) n (%)
- Leukocytosis, number of events (E) (human, in vivo): 1
- Leukocytosis, patients affected (human, in vivo): 1 (2.8) n (%)
- Melaena, number of events (E) (human, in vivo): 1
- Melaena, patients affected (human, in vivo): 1 (2.8) n (%)
- Mental status changes, number of events (E) (human, in vivo): 1
- Mental status changes, patients affected (human, in vivo): 1 (2.8) n (%)
- Metabolism and nutrition disorders (System Organ Class), number of events (E) (human, in vivo): 21
- Metabolism and nutrition disorders (System Organ Class), patients affected (human, in vivo): 14 (38.9) n (%)
- Musculoskeletal and connective tissue disorders (System Organ Class), number of events (E) (human, in vivo): 4
- Musculoskeletal and connective tissue disorders (System Organ Class), patients affected (human, in vivo): 2 (5.6) n (%)
- Nausea, number of events (E) (human, in vivo): 3
- Nausea, patients affected (human, in vivo): 3 (8.3) n (%)
- Nervous system disorders (System Organ Class), number of events (E) (human, in vivo): 3
- Nervous system disorders (System Organ Class), patients affected (human, in vivo): 3 (8.3) n (%)
- Neutropenia, number of events (E) (human, in vivo): 3
- Neutropenia, patients affected (human, in vivo): 2 (5.6) n (%)
- Number of TEAE, number of events (E) (human, in vivo): 148
- Number of TEAE, patients affected (human, in vivo): 35 (97.2) n (%)
- Oesophagitis, number of events (E) (human, in vivo): 1
- Oesophagitis, patients affected (human, in vivo): 1 (2.8) n (%)
- Osteitis, number of events (E) (human, in vivo): 1
- Osteitis, patients affected (human, in vivo): 1 (2.8) n (%)
- Patients with dose interruptions due to adverse events (human, in vivo): 17
- Patients with dose reductions (human, in vivo): 3
- Pharyngitis, number of events (E) (human, in vivo): 1
- Pharyngitis, patients affected (human, in vivo): 1 (2.8) n (%)
- Pneumonia, number of events (E) (human, in vivo): 8
- Pneumonia, patients affected (human, in vivo): 8 (22.2) n (%)
- Psychiatric disorders (System Organ Class), number of events (E) (human, in vivo): 3
- Psychiatric disorders (System Organ Class), patients affected (human, in vivo): 3 (8.3) n (%)
- Pulmonary congestion, number of events (E) (human, in vivo): 1
- Pulmonary congestion, patients affected (human, in vivo): 1 (2.8) n (%)
- Rash erythematous, number of events (E) (human, in vivo): 1
- Rash erythematous, patients affected (human, in vivo): 1 (2.8) n (%)
- Renal and urinary disorders (System Organ Class), number of events (E) (human, in vivo): 4
- Renal and urinary disorders (System Organ Class), patients affected (human, in vivo): 2 (5.6) n (%)
- Respiratory failure, number of events (E) (human, in vivo): 1
- Respiratory failure, patients affected (human, in vivo): 1 (2.8) n (%)
- Respiratory, thoracic and mediastinal disorders (System Organ Class), number of events (E) (human, in vivo): 9
- Respiratory, thoracic and mediastinal disorders (System Organ Class), patients affected (human, in vivo): 6 (16.7) n (%)
- Sepsis, number of events (E) (human, in vivo): 3
- Sepsis, patients affected (human, in vivo): 3 (8.3) n (%)
- Skin and subcutaneous tissue disorders (System Organ Class), number of events (E) (human, in vivo): 1
- Skin and subcutaneous tissue disorders (System Organ Class), patients affected (human, in vivo): 1 (2.8) n (%)
- Stomatitis, number of events (E) (human, in vivo): 1
- Stomatitis, patients affected (human, in vivo): 1 (2.8) n (%)
- Streptococcal bacteraemia, number of events (E) (human, in vivo): 1
- Streptococcal bacteraemia, patients affected (human, in vivo): 1 (2.8) n (%)
- Supraventricular tachycardia, number of events (E) (human, in vivo): 1
- Supraventricular tachycardia, patients affected (human, in vivo): 1 (2.8) n (%)
- Syncope, number of events (E) (human, in vivo): 1
- Syncope, patients affected (human, in vivo): 1 (2.8) n (%)
- TEAE leading to Discontinuation (human, in vivo): 4 n (%)
- Thrombocytopenia, number of events (E) (human, in vivo): 7
- Thrombocytopenia, patients affected (human, in vivo): 5 (13.9) n (%)
- Toothache, number of events (E) (human, in vivo): 1
- Toothache, patients affected (human, in vivo): 1 (2.8) n (%)
- Urethral haemorrhage, number of events (E) (human, in vivo): 1
- Urethral haemorrhage, patients affected (human, in vivo): 1 (2.8) n (%)
- Urinary incontinence, number of events (E) (human, in vivo): 1
- Urinary incontinence, patients affected (human, in vivo): 1 (2.8) n (%)
- Vascular disorders (System Organ Class), number of events (E) (human, in vivo): 3
- Vascular disorders (System Organ Class), patients affected (human, in vivo): 3 (8.3) n (%)
- Viral infection, number of events (E) (human, in vivo): 1
- Viral infection, patients affected (human, in vivo): 1 (2.8) n (%)
- Vomiting, number of events (E) (human, in vivo): 2
- Vomiting, patients affected (human, in vivo): 2 (5.6) n (%)
- Oral pain, number of events (E) (human, in vivo, po): 1
- Oral pain, patients affected (human, in vivo, po): 1 (2.8) n (%)
- Eye toxicity of grade ≥3 (in vivo): Only a single event
- Retinal toxicities (in vivo): no evidence for retinal toxicities
- Tolerability (in vivo): well-tolerated
- Fatal SAE: Adverse event (Dose escalation 400 mg/100 mg): Neutropenic sepsis
- Fatal SAE: Grade (Dose escalation 400 mg/100 mg): 5
- Fatal SAE: Relationship to Bemcentinib (Dose escalation 400 mg/100 mg): Unrelated
- Fatal SAE: Adverse event (Dose escalation 400 mg/200 mg): Multi-organ failure; also recorded: Pneumonia fungal; also recorded: Cerebral haemorrhage
- Fatal SAE: Grade (Dose escalation 400 mg/200 mg): 5
- Fatal SAE: Relationship to Bemcentinib (Dose escalation 400 mg/200 mg): Unrelated; also recorded: Unlikely related
- Fatal SAE: Adverse event (Dose escalation 600 mg/200 mg): Pneumonia; also recorded: Sepsis
- Fatal SAE: Grade (Dose escalation 600 mg/200 mg): 5
- Fatal SAE: Relationship to Bemcentinib (Dose escalation 600 mg/200 mg): Unrelated
